The values below come from US9474790B2, “Stable, protracted GLP-1/glucagon receptor co-agonists for medical use” (Novo Nordisk A/S, priority 2013, dated 2016).

One may read the EC50 as the concentration needed to bring the measured effect to its halfway point. Broadly, the IC50 is the concentration at which inhibition is half-maximal.

The target in one assay is T1, human glucagon receptor (Homo sapiens, UniProt P47871).
T1 construct: expressed in transfected cells; host or cells: BHK cells (parent BHK570, CRE luciferase clone BHK/KZ10-20-48), clone pLJ6'-4-25
T1 sequence (P47871 26-477): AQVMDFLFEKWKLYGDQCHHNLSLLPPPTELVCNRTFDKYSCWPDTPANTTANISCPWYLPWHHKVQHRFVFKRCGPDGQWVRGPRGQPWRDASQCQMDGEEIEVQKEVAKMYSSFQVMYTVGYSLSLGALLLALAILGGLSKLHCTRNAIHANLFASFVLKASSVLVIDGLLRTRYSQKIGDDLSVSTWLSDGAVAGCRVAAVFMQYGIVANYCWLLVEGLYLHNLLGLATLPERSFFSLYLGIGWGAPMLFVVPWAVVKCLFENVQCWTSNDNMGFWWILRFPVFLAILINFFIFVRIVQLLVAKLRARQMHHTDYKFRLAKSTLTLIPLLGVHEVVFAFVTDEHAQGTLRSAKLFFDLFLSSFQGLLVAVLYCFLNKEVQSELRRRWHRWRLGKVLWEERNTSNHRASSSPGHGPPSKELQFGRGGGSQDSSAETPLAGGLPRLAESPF
In words: Glucagon receptor potency, CRE luciferase reporter gene assay in BHK cells. Type of assay: cell-based. The conditions noted are these: BHK cells expressing human glucagon receptor, read-out: EC50 GlucR. The protocol: The purpose of this example was to test the potency, of the glucagon derivatives of the invention, in vitro. The in vitro potency is the measure of human GLP-1 receptor or glucagon receptor activation, respectively, in a whole cell assay.
In vitro potency was determined by measuring the response of human GLP-1 or glucagon receptor, respectively, in a reporter gene assay. The assay was performed in a stably transfected BHK cell line that expresses either the human GLP-1 receptor or the human glucagon receptor and contains the DNA for the cAMP response element (CRE) coupled to a promoter and the gene for firefly luciferase (CRE luciferase). […] When assay incubation was completed, the luciferase substrate (luciferin) was added and the enzyme converted luciferin to oxyluciferin and produces bioluminescence. The luminescence was measured as the readout for the assay.
The cells used in this assay (clone pLJ6′-4-25) were BHK cells with BHK570 as a parent cell line expressing the CRE luciferase gene (clone BHK/KZ10-20-48) and were established by further transfection with the human glucagon receptor (clone pLJ6′ in pHZ-1 vector).
The cells were cultured at 5% CO2 in DMEM medium with 10% FBS, 1×GlutaMAX, 1 mg/ml G418, 240 nM MTX (methotrexate) and 1% pen/strep (penicillin/streptomycin). They were aliquoted and stored in liquid nitrogen. Before each assay, an aliquot was taken up and washed three times in PBS before being suspended at the desired concentration in assay medium. For 96-well plates the suspension was made to give a final concentration of 5×10EE3 cells/well.
The following chemicals were used in the assay: Pluronic F-68 (10%) (Gibco 2404), ovalbumin (Sigma A5503), DMEM w/o phenol red (Gibco 11880-028), 1 M Hepes (Gibco 15630), Glutamax 100× (Gibco 35050) and steadylite plus (PerkinElmer 6016757).
Assay Medium consisted of DMEM w/o phenol red, 10 mM Hepes, 1× GlutaMAX, 2% Ovalbumin and 0.2% Pluronic F-68.
Cell stocks were thawed in a 37° C. water bath. Cells were washed three times in PBS. The cells were counted and adjusted to 5×10EE3 cells/50 μl (1×10EE5 cells/ml) in Assay Medium. A 50 μl aliquot of cells was transferred to each well in the assay plate.
Stocks of the test compounds and reference compounds were diluted to a concentration of […] in Assay Medium. Compounds were diluted 10-fold to give the following concentrations: 2×10EE-6 M, 2×10EE-7 M, 2×10EE-8 M; 2×10EE-9 M, 2×10EE-10 M, 2×10EE-11 M, 2×10EE-12 M and 2×10EE-13 M. For each compound a blank assay medium control was also included.
A 50 μl aliquot of compound or blank was transferred from the dilution plate to the assay plate. Compounds were tested at the following final concentrations: 1×10EE-6 M, 1×10EE-7 M, 1×10EE-8 M; 1×10EE-9 M, 1×10EE-10 M, 1×10EE-11 M and 1×10EE-12 M and 1×10EE-13 M.
The assay plate was incubated for 3 h in a 5% CO2 incubator at 37° C. The assay plate was removed from the incubator and allowed to stand at room temperature for 15 min. A 100 μl aliquot of steadylite plus reagent was added to each well of the assay plate (reagent is light sensitive). Each assay plate was covered with aluminum foil to protect it from light and shaken for 30 min at room temperature. Each assay plate was read in a Perkin Elmer TopCount NXT instrument.
The data from the TopCount instrument was transferred to GraphPad Prism software. The software performed a non-linear regression (log(agonist) vs response-Variable slope (four parameter)). EC50 values were calculated by the software and reported in pM.
Background: Reporter assays use an easily measured gene product as a stand-in for the process of interest.

The target of assay [1] is T2, human GLP-1 receptor (Homo sapiens, UniProt P43220).
T2 construct: expressed in transfected cells; host or cells: BHK cells (parent BHKTS13), clone FCW467-12A/KZ10-1, with CRE luciferase
T2 sequence (P43220 24-463): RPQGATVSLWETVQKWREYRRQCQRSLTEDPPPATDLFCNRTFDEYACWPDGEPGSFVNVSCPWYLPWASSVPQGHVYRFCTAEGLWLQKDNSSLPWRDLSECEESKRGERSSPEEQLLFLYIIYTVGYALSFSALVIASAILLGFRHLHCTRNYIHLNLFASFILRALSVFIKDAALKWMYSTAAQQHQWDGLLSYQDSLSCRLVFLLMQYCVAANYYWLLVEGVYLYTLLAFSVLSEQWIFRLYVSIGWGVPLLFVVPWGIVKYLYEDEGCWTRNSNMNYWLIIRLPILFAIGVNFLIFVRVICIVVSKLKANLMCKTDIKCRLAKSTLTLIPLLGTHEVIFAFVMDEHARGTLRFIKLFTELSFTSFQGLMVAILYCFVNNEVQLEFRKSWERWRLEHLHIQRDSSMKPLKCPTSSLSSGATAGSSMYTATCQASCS
In words: GLP-1 receptor potency, CRE luciferase reporter gene assay in BHK cells. The assay is classed as cell-based. The note with it: BHK cells expressing human GLP-1 receptor, read-out: EC50 GLP-1R. The method in brief: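 BHK cells stably expressing human GLP-1 receptor with CRE-luciferase reporter, 5×10EE3 cells/well in phenol red-free DMEM with 10 mM Hepes, 2% ovalbumin, 0.2% Pluronic F-68. Compounds at final 1×10EE-6 to 1×10EE-13 M, 3 h at 37° C; steadylite luminescence; EC50 by four-parameter fit, in pM.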

In assay [2] the target is T2, human GLP-1 receptor. In words: GLP-1 receptor binding, 125I-GLP-1 displacement SPA on isolated membranes. The note with it: displacement of 125I-GLP-1 from membranes; read-out: IC50 GLP-1R. The gist of the method:
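SPA displacement of 125I-GLP-1(7-36)NH2 from membranes of BHK cells expressing human GLP-1 receptor, with WGA beads, in 50 mM HEPES, 5 mM EGTA, 5 mM MgCl2, 0.005% Tween 20, pH 7.4. Incubated 2 h at 30°C; IC50 by non-linear regression, run at ≤0.001% or 2.0% final serum albumin.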
Background: Displacement assays read how much labelled ligand stays bound in the presence of the test substance.

Numbered stars: 1 amine (or outer) side, 2 acyl side, 3 side chain; on linkers, the order of the positions; unused ones are H or OH. Square brackets hold non-standard residues; d marks the D form. Side chains are listed from the residue outwards. Peptide text beside a SMILES is read from it. * marks the point of attachment. C18 diacid = O=C(O)CCCCCCCCCCCCCCCCC(=O)*; γGlu = O=C(O)[C@H](CCC(=O)[*:2])N[*:1]; AEEA = NCCOCCOCC(=O)O; Aib = CC(C)(N)C(=O)O

As to `CC(C)C[C@H](NC(=O)[C@H](Cc1ccc(O)cc1)NC(=O)[C@H](CCCCN)NC(=O)[C@H](CO)NC(=O)[C@H](CC(C)C)NC(=O)[C@H](CC(=O)O)NC(=O)[C@H](CO)NC(=O)[C@@H](NC(=O)[C@H](Cc1ccccc1)NC(=O)[C@@H](NC(=O)CNC(=O)[C@H](CCC(N)=O)NC(=O)C(C)(C)NC(=O)[C@@H](N)Cc1c[nH]cn1)[C@@H](C)O)[C@@H](C)O)C(=O)N[C@@H](CC(=O)O)C(=O)N[C@@H](CCCCNC(=O)CC[C@H](NC(=O)CC[C@H](NC(=O)COCCOCCNC(=O)COCCOCCNC(=O)CC[C@H](NC(=O)CCCCCCCCCCCCCCCCC(=O)O)C(=O)O)C(=O)O)C(=O)O)C(=O)N[C@@H](CCCNC(=N)N)C(=O)N[C@@H](CCCNC(=N)N)C(=O)N[C@@H](C)C(=O)N[C@@H](CCCNC(=N)N)C(=O)N[C@@H](CC(=O)O)C(=O)N[C@@H](Cc1ccccc1)C(=O)N[C@H](C(=O)N[C@@H](CCC(N)=O)C(=O)N[C@@H](Cc1c[nH]c2ccccc12)C(=O)N[C@@H](CC(C)C)C(=O)N[C@@H](CC(C)C)C(=O)N[C@@H](CO)C(=O)N[C@H](C(N)=O)[C@@H](C)O)C(C)C` [Example 1, N^ε16-[(4S)-4-carboxy-4-[[(4S)-4-carboxy-4-[[2-[2-[2-[[2-[2-[2-[[(4S)-4-carboxy-4-(17-carboxyheptadecanoylamino)butanoyl]amino]ethoxy]ethoxy]acetyl]amino]ethoxy]ethoxy]acetyl]amino]butanoyl]amino]butanoyl]-[Aib2,Leu10,Lys16,Arg20,Leu27,Ser28]-Glucagon amide] (H-H[Aib]QGTFTSDLSKYLDK([γGlu-γGlu-AEEA-AEEA-γGlu-C18 diacid])RRARDFVQWLLST-NH2; N-terminus assumed), the values for the EC50 at human glucagon receptor and at human GLP-1 receptor [1] were 54 pM and 8 pM, respectively.

As for `CC(C)C[C@H](NC(=O)[C@H](Cc1ccc(O)cc1)NC(=O)[C@H](CCCCN)NC(=O)[C@H](CO)NC(=O)[C@H](CC(C)C)NC(=O)[C@H](CC(=O)O)NC(=O)[C@H](CO)NC(=O)[C@@H](NC(=O)[C@H](Cc1ccccc1)NC(=O)[C@@H](NC(=O)CNC(=O)[C@H](CCC(N)=O)NC(=O)C(C)(C)NC(=O)[C@@H](N)Cc1c[nH]cn1)[C@@H](C)O)[C@@H](C)O)C(=O)N[C@@H](CC(=O)O)C(=O)N[C@@H](CO)C(=O)N[C@@H](CCCNC(=N)N)C(=O)N[C@@H](CCCNC(=N)N)C(=O)N[C@@H](C)C(=O)N[C@@H](CCCNC(=N)N)C(=O)N[C@@H](CC(=O)O)C(=O)N[C@@H](Cc1ccccc1)C(=O)N[C@H](C(=O)N[C@@H](CCC(N)=O)C(=O)N[C@@H](Cc1c[nH]c2ccccc12)C(=O)N[C@@H](CC(C)C)C(=O)N[C@@H](CC(C)C)C(=O)N[C@@H](CCCCNC(=O)CC[C@H](NC(=O)CC[C@H](NC(=O)COCCOCCNC(=O)COCCOCCNC(=O)CC[C@H](NC(=O)CCCCCCCCCCCCCCCCC(=O)O)C(=O)O)C(=O)O)C(=O)O)C(=O)N[C@H](C(N)=O)[C@@H](C)O)C(C)C` [Example 4, N^ε28-[(4S)-4-carboxy-4-[[(4S)-4-carboxy-4-[[2-[2-[2-[[2-[2-[2-[[(4S)-4-carboxy-4-(17-carboxyheptadecanoylamino)butanoyl]amino]ethoxy]ethoxy]acetyl]amino]ethoxy]ethoxy]acetyl]amino]butanoyl]amino]butanoyl]-[Aib2,Leu10,Arg20,Leu27,Lys28]-Glucagon amide] (H-H[Aib]QGTFTSDLSKYLDSRRARDFVQWLLK([γGlu-γGlu-AEEA-AEEA-γGlu-C18 diacid])T-NH2; N-terminus assumed), the EC50 at human glucagon receptor worked out at 16 pM; at human GLP-1 receptor [1], 4 pM.

In the case of `CC(C)C[C@H](NC(=O)[C@H](CC(=O)O)NC(=O)[C@H](CC(C)C)NC(=O)[C@H](Cc1ccc(O)cc1)NC(=O)[C@H](CCCCN)NC(=O)[C@H](CO)NC(=O)[C@@H](NC(=O)[C@H](CC(=O)O)NC(=O)[C@H](CO)NC(=O)[C@@H](NC(=O)[C@H](Cc1ccccc1)NC(=O)[C@@H](NC(=O)CNC(=O)[C@H](CCC(N)=O)NC(=O)C(C)(C)NC(=O)[C@@H](N)Cc1c[nH]cn1)[C@@H](C)O)[C@@H](C)O)C(C)C)C(=O)N[C@@H](CCCNC(=N)N)C(=O)N[C@@H](CCCNC(=N)N)C(=O)N[C@@H](C)C(=O)N[C@@H](CCC(N)=O)C(=O)N[C@@H](CC(=O)O)C(=O)N[C@@H](Cc1ccccc1)C(=O)N[C@H](C(=O)N[C@@H](CCC(N)=O)C(=O)N[C@@H](Cc1c[nH]c2ccccc12)C(=O)N[C@@H](CC(C)C)C(=O)N[C@@H](CC(C)C)C(=O)N[C@@H](CCCCNC(=O)COCCOCCNC(=O)COCCOCCNC(=O)CC[C@H](NC(=O)CC[C@H](NC(=O)CC[C@H](NC(=O)CCCCCCCCCCCCCCCCC(=O)O)C(=O)O)C(=O)O)C(=O)O)C(=O)N[C@H](C(N)=O)[C@@H](C)O)C(C)C` [Example 71, N^ε28-[2-[2-[2-[[2-[2-[2-[[(4S)-4-carboxy-4-[[(4S)-4-carboxy-4-[[(4S)-4-carboxy-4-(17-carboxyheptadecanoylamino)butanoyl]amino]butanoyl]amino]butanoyl]amino]ethoxy]ethoxy]acetyl]amino]ethoxy]ethoxy]acetyl]-[Aib2,Val10,Leu16,Leu27,Lys28]-Glucagon amide] (H-H[Aib]QGTFTSDVSKYLDLRRAQDFVQWLLK([AEEA-AEEA-γGlu-γGlu-γGlu-C18 diacid])T-NH2), the IC50 at human GLP-1 receptor [2] was 700 pM. In addition, the figures for the EC50 at human glucagon receptor and at human GLP-1 receptor [1] were 17 pM and 4 pM, respectively.
